Data reported in patent US20250042905A1, “DIHYDROPYRROLO[3,4-C]PYRAZOLE DERIVATIVES AND THEIR USE IN DIAGNOSIS” (AC IMMUNE SA, priority 2021, published 2025).
Read-outs that look alike come from different tables or passages of the source.

Target: T1, PD brain-derived alpha-synuclein aggregates (Homo sapiens, UniProt P37840)
T1 construct: PD brain-derived alpha-synuclein aggregates were spotted onto microarray slides; from tissue; host or cells: human Parkinson's disease patient brain
Assay: Micro-radiobinding competition assay for the determination of binding affinity
Settings: for inhibition at 0.1 µM: read-out: Competition at 100 nM (%); for inhibition at 1 µM: read-out: Competition at 1 μM (%); for Ki: concentration range 0.05 nM to 2 μM, nonlinear regression, one site specific binding model
Procedure: Micro-Radiobinding Competition Assay for the Determination of Binding Affinity
PD brain-derived alpha-synuclein aggregates were spotted onto microarray slides. The slides were incubated with tritiated reference alpha-synuclein ligand at 20 nM or 30 nM and the example compounds (non-radiolabelled) at 1 μM and 100 nM. In some cases, the non-radiolabelled example compounds were further assessed for a range of different concentrations, varying from 0.05 nM to 2 μM. After incubation, slides were washed and scanned by a real-time autoradiography system (BeaQuant, ai4R). Quantification of the signal was performed by using the Beamage image analysis software (ai4R). Non-specific signal was determined with an excess of non-radiolabelled reference alpha-synuclein ligand (2 μM) and specific binding was calculated by subtracting the non-specific signal from the total signal. Competition was calculated as percent, where 0% was defined as the specific binding in the presence of vehicle and 100% as the values obtained in the presence of excess of the non-radiolabelled reference alpha-synuclein ligand. Ki values were calculated in GraphPad Prism7 by applying a nonlinear regression curve fit using a one site, specific binding model. All measurements were performed with at least two technical replicates.
Table 4: Assessment of binding affinity by micro-radiobinding competition assay on human PD brain-derived alpha-synuclein aggregates.

[1] = non-radiolabelled example compound at 100 nM, competition with tritiated reference alpha-synuclein ligand (20 nM or 30 nM), 100% = excess non-radiolabelled reference ligand
[2] = non-radiolabelled example compound at 1 μM, competition with tritiated reference alpha-synuclein ligand (20 nM or 30 nM), 100% = excess non-radiolabelled reference ligand

inhibition at 0.1 µM [1] | inhibition at 1 µM [2] | Compound | inhibition at 0.1 µM | inhibition at 1 µM | Ki
89% | 95% | O=C1c2cn(-c3cnc(N4CC[C@@H](F)C4)cn3)nc2CN1c1cccnc1 [Example 1, (R)-2-(5-(3-fluoropyrrolidin-1-yl)pyrazin-2-yl)-5-(pyridin-3-yl)-5,6-dihydropyrrolo[3,4-c]pyrazol-4(2H)-one] | – | – | –
39% | 68% | O=C1c2cn(-c3cnc(N4CCCCC(F)C4)cn3)nc2CN1c1cccnc1 (stereo not drawn) [Example 5, 2-(5-(3-fluoroazepan-1-yl)pyrazin-2-yl)-5-(pyridin-3-yl)-5,6-dihydropyrrolo[3,4-c]pyrazol-4(2H)-one] | – | – | –
46% | 91% | Cc1ccc(N2Cc3nn(-c4cnc(N5CC[C@@H](F)C5)cn4)cc3C2=O)cn1 [Example 17, (R)-2-(5-(3-fluoropyrrolidin-1-yl)pyrazin-2-yl)-5-(6-methylpyridin-3-yl)-5,6-dihydropyrrolo[3,4-c]pyrazol-4(2H)-one] | – | – | –
38% | 82% | Cc1ccc(N2Cc3nn(-c4cnc(N5CC[C@H](F)C5)cn4)cc3C2=O)cn1 [Example 18, (S)-2-(5-(3-fluoropyrrolidin-1-yl)pyrazin-2-yl)-5-(6-methylpyridin-3-yl)-5,6-dihydropyrrolo[3,4-c]pyrazol-4(2H)-one] | – | – | –

Second part, the molecule before the results:

Compound | inhibition at 0.1 µM [1] | inhibition at 1 µM [2] | inhibition at 0.1 µM | inhibition at 1 µM | Ki
O=C1c2cn(-c3cnc(N4CC[C@H](F)C4)cn3)nc2CN1c1cccnc1 [Example 2, (S)-2-(5-(3-fluoropyrrolidin-1-yl)pyrazin-2-yl)-5-(pyridin-3-yl)-5,6-dihydropyrrolo[3,4-c]pyrazol-4(2H)-one] | – | – | 74% | 98% | –
COc1cncc(N2Cc3nn(-c4cnc(N5CC[C@@H](F)C5)cn4)cc3C2=O)c1 [Example 7, (R)-2-(5-(3-fluoropyrrolidin-1-yl)pyrazin-2-yl)-5-(5-methoxypyridin-3-yl)-5,6-dihydropyrrolo[3,4-c]pyrazol-4(2H)-one] | – | – | 48% | 69% | –
Cn1cc(N2Cc3nn(-c4cnc(N5CCCCC(F)C5)cn4)cc3C2=O)cn1 (stereo not drawn) [Example 8, 2-(5-(3-fluoroazepan-1-yl)pyrazin-2-yl)-5-(1-methyl-1H-pyrazol-4-yl)-5,6-dihydropyrrolo[3,4-c]pyrazol-4(2H)-one] | 45% | 78% | – | – | 33 nM
O=C1c2cn(-c3cnc(N4CC[C@@H](F)C4)cn3)nc2CN1c1cncs1 [Example 9, (R)-2-(5-(3-fluoropyrrolidin-1-yl)pyrazin-2-yl)-5-(thiazol-5-yl)-5,6-dihydropyrrolo[3,4-c]pyrazol-4(2H)-one] | – | – | 106% | – | 10 nM
COc1cncc(N2Cc3nn(-c4cnc(N5CC[C@H](F)C5)cn4)cc3C2=O)c1 [Example 10, (S)-2-(5-(3-fluoropyrrolidin-1-yl)pyrazin-2-yl)-5-(5-methoxypyridin-3-yl)-5,6-dihydropyrrolo[3,4-c]pyrazol-4(2H)-one] | – | – | 59% | 82% | –
COc1cncc(N2Cc3nn(-c4cnc(N5CC(F)C5)cn4)cc3C2=O)c1 [Example 11, 2-(5-(3-fluoroazetidin-1-yl)pyrazin-2-yl)-5-(5-methoxypyridin-3-yl)-5,6-dihydropyrrolo[3,4-c]pyrazol-4(2H)-one] | – | – | 41% | 69% | –
O=C1c2cn(-c3cnc(N4CC[C@H](F)C4)cn3)nc2CN1c1cncs1 [Example 12, (S)-2-(5-(3-fluoropyrrolidin-1-yl)pyrazin-2-yl)-5-(thiazol-5-yl)-5,6-dihydropyrrolo[3,4-c]pyrazol-4(2H)-one] | – | – | 50% | – | –
O=C1c2cn(-c3cnc(N4CCCC(F)CC4)cn3)nc2CN1c1cccnc1 (stereo not drawn) [Example 15, 2-(5-(4-fluoroazepan-1-yl)pyrazin-2-yl)-5-(pyridin-3-yl)-5,6-dihydropyrrolo[3,4-c]pyrazol-4(2H)-one] | 39% | 67% | – | – | –
